According to patent publication US10239869B2, “Sulfonamide compounds as voltage-gated sodium channel modulators” (LUPIN LIMITED, priority 2015, dated 2019):
Like-named read-outs stand apart in the source and are kept apart here.

What was measured:
[1] = biological target: Nav 1.5 (Homo sapiens (Human), UniProt Q14524); test: Inhibition of sodium channels, Red Membrane Potential Dye FLIPR assay, veratridine depolarization; assay type: cell-based; conditions: HEK-293 cells overexpressing the channel
Sequence of Nav 1.5 (Q14524 whole entry): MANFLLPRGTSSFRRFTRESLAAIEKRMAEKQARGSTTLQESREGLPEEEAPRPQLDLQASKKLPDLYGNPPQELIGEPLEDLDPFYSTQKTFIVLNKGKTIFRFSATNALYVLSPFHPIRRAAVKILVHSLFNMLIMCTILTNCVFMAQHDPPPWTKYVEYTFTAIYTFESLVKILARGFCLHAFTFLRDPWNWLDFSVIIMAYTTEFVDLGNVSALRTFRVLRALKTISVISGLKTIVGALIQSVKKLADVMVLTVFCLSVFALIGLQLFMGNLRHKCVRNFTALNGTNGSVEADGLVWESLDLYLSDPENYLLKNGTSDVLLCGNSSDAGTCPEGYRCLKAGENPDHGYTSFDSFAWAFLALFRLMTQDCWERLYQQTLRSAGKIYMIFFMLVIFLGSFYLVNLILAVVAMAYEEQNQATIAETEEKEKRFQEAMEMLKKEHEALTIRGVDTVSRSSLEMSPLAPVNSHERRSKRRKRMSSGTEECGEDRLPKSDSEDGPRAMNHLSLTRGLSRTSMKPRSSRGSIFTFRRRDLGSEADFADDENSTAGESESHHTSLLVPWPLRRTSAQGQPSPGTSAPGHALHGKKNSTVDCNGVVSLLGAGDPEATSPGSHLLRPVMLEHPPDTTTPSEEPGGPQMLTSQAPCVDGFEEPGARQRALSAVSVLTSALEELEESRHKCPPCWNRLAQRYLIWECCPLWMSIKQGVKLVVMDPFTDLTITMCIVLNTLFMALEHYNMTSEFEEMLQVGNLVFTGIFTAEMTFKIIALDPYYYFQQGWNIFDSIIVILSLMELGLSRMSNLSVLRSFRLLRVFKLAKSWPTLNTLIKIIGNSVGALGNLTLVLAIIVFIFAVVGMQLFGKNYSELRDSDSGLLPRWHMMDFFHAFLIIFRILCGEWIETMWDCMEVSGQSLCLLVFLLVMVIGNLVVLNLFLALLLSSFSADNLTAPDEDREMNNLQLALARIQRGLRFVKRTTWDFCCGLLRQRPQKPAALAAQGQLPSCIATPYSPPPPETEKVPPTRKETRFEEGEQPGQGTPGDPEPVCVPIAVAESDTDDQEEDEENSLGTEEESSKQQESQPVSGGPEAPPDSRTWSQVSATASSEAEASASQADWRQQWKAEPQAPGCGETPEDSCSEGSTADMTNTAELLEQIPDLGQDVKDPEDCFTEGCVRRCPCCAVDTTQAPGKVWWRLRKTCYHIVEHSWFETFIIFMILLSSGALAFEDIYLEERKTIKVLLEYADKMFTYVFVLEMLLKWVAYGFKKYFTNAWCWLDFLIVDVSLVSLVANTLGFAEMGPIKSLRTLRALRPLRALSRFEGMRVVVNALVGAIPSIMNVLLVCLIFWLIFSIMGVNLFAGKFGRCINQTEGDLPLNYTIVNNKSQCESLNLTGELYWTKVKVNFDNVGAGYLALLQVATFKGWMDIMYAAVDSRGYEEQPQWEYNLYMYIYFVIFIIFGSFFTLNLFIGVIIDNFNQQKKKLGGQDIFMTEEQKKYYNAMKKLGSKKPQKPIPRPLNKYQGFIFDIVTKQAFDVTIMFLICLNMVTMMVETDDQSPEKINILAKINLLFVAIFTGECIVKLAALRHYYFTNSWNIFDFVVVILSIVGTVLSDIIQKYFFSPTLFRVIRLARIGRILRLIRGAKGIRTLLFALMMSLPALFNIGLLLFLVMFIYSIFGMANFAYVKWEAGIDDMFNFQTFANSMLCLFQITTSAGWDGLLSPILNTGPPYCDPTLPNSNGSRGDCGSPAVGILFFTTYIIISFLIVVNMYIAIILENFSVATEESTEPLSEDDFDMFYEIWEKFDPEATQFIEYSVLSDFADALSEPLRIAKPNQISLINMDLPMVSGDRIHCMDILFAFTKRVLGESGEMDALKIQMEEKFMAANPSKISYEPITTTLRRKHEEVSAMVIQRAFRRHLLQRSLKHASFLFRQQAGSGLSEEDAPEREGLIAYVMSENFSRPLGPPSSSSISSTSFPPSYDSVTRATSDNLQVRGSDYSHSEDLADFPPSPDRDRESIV

[2] = biological target: Nav 1.7 (Homo sapiens (Human), UniProt Q15858); test: as above; assay type: cell-based; conditions: HEK-293 cells overexpressing the channel; for IC50: read-out: Nav1.7 IC50
Sequence of Nav 1.7 (Q15858 whole entry): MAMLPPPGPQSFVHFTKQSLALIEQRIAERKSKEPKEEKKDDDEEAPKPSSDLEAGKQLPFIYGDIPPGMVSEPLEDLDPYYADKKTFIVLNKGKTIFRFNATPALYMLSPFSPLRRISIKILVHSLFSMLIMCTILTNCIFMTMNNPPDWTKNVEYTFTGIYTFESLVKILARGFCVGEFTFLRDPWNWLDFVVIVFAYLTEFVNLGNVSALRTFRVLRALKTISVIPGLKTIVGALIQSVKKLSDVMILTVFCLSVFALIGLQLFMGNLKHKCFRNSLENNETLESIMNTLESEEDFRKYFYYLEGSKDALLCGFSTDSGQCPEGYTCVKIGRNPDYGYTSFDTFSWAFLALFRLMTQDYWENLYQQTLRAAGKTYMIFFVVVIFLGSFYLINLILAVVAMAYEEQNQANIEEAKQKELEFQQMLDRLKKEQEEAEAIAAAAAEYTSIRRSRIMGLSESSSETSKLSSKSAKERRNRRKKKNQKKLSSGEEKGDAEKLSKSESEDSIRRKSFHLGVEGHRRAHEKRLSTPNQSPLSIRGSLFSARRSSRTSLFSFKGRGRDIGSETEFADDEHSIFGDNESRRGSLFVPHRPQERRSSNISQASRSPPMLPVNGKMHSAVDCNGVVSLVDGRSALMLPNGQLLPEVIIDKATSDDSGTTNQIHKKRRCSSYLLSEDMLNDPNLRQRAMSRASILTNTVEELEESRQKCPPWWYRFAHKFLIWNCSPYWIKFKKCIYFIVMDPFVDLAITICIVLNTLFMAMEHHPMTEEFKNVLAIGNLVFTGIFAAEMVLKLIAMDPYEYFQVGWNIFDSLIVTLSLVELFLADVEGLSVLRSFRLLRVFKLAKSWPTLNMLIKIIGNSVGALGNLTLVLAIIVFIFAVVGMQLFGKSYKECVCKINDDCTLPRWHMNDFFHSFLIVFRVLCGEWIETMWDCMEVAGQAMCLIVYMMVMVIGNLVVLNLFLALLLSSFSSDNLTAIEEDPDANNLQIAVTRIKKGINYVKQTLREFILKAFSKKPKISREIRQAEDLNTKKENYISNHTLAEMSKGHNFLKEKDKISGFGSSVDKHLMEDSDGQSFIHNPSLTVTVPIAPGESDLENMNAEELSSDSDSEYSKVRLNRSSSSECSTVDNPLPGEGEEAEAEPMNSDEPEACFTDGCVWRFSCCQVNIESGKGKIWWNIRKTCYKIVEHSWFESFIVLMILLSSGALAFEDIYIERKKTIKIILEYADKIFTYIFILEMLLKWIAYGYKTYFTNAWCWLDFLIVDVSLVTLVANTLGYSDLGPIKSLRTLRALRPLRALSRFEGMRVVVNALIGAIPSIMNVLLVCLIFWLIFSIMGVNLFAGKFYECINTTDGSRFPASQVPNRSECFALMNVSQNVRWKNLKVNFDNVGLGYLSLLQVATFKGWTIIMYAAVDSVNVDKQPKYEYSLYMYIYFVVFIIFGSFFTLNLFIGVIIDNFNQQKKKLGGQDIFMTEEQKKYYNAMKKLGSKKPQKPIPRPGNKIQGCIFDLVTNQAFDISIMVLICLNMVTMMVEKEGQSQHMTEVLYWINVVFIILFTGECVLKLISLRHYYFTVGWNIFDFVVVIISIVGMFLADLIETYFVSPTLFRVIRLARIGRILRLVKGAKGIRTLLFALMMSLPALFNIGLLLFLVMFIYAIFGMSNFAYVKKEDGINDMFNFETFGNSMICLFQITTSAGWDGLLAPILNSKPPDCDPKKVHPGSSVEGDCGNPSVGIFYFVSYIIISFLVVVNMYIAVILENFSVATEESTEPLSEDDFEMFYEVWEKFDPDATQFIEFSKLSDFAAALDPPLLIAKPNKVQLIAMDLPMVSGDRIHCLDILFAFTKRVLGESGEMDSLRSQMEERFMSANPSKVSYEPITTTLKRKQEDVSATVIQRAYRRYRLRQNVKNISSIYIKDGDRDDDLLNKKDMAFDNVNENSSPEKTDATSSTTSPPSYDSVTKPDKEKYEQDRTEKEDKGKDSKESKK

[3] = read-out: Nav1.5 IC50 (bound given in μM)

Structure (SMILES)	Nav1.5 % inhibition @ 10 μM [1]	IC50 [2]	IC50 [1, 3]	Nav1.7 inhibition @ 10 μM ([2]; 10 μM)	IC50 ([1]; read-out: Nav1.5 IC50)
O=C1CCCN1c1cc(C(F)(F)F)ccc1[C@@H]1CCOc2cc(S(=O)(=O)Nc3cccc(F)n3)ccc21 [Example 111, (S&R)—N-(6-Fluoropyridin-2-yl)-4-(2-(2-oxopyrrolidin-1-yl)-4-(trifluoromethyl)phenyl)chroman-7-sulfonamide]	67%	814 nM			
O=C1CCCN1c1cc(C(F)(F)F)ccc1[C@H]1CCOc2cc(S(=O)(=O)Nc3cccc(F)n3)ccc21 [Example 112, (S&R)—N-(6-Fluoropyridin-2-yl)-4-(2-(2-oxopyrrolidin-1-yl)-4-(trifluoromethyl)phenyl)chroman-7-sulfonamide]	65%	801 nM			
O=C1CCCN1c1cc(C(F)(F)F)ccc1[C@@H]1CCOc2cc(S(=O)(=O)Nc3ncc(F)cn3)ccc21 [Example 113, (S&R)—N-(5-fluoropyrimidin-2-yl)-4-(2-(2-oxopyrrolidin-1-yl)-4-(trifluoromethyl)phenyl)chroman-7-sulfonamide]			> 10 µM	65%	
O=C1CCCN1c1cc(C(F)(F)F)ccc1[C@H]1CCOc2cc(S(=O)(=O)Nc3ncc(F)cn3)ccc21 [Example 114, (S&R)—N-(5-fluoropyrimidin-2-yl)-4-(2-(2-oxopyrrolidin-1-yl)-4-(trifluoromethyl)phenyl)chroman-7-sulfonamide]		624 nM	> 10 µM		
COCCOc1cc(C(F)(F)F)ccc1[C@@H]1CCOc2cc(S(=O)(=O)Nc3ncccn3)ccc21 [Example 124, (S&R)-4-(2-(2-methoxyethoxy)-4-(trifluoromethyl)phenyl)-N-(pyrimidin-2-yl)chroman-7-sulfonamide]	71%	2230 nM			
COCCOc1cc(C(F)(F)F)ccc1[C@H]1CCOc2cc(S(=O)(=O)Nc3ncccn3)ccc21 [Example 125, (S&R)-4-(2-(2-methoxyethoxy)-4-(trifluoromethyl)phenyl)-N-(pyrimidin-2-yl)chroman-7-sulfonamide]		395 nM			2.64 µM
COCCCOc1cc(C(F)(F)F)ccc1[C@@H]1CCOc2cc(S(=O)(=O)Nc3ncccn3)ccc21 [Example 130, (S&R)-4-(2-(3-methoxypropoxy)-4-(trifluoromethyl)phenyl)-N-(pyrimidin-2-yl)chroman-7-sulfonamide]		1690 nM	> 10 µM		
COCCCOc1cc(C(F)(F)F)ccc1[C@H]1CCOc2cc(S(=O)(=O)Nc3ncccn3)ccc21 [Example 131, (S&R)-4-(2-(3-methoxypropoxy)-4-(trifluoromethyl)phenyl)-N-(pyrimidin-2-yl)chroman-7-sulfonamide]	66%	53 nM			
COCCCc1cc(C(F)(F)F)ccc1[C@@H]1CCOc2cc(S(=O)(=O)Nc3ncccn3)ccc21 [Example 140, (S&R)-4-(2-(3-methoxypropyl)-4-(trifluoromethyl)phenyl)-N-(pyrimidin-2-yl)chroman-7-sulfonamide]		1740 nM	> 10 µM		
COCCCc1cc(C(F)(F)F)ccc1[C@H]1CCOc2cc(S(=O)(=O)Nc3ncccn3)ccc21 [Example 141, (S&R)-4-(2-(3-methoxypropyl)-4-(trifluoromethyl)phenyl)-N-(pyrimidin-2-yl)chroman-7-sulfonamide]	65%	69 nM			
COCCCCc1cc(C(F)(F)F)ccc1[C@@H]1CCOc2cc(S(=O)(=O)Nc3ncccn3)ccc21 [Example 146, (S&R)-4-(2-(4-methoxybutyl)-4-(trifluoromethyl)phenyl)-N-(pyrimidin-2-yl)chroman-7-sulfonamide]		790 nM	> 10 µM		
COCCCCc1cc(C(F)(F)F)ccc1[C@H]1CCOc2cc(S(=O)(=O)Nc3ncccn3)ccc21 [Example 147, (S&R)-4-(2-(4-methoxybutyl)-4-(trifluoromethyl)phenyl)-N-(pyrimidin-2-yl)chroman-7-sulfonamide]	60%	199 nM			
COCCCCc1cc(C(F)(F)F)ccc1[C@@H]1CCOc2cc(S(=O)(=O)Nc3cccc(F)n3)ccc21 [Example 151, (S&R)—N-(6-fluoropyridin-2-yl)-4-(2-(4-methoxybutyl)-4-(trifluoromethyl)phenyl)chroman-7-sulfonamide]	57%	390 nM			
COCCCCc1cc(C(F)(F)F)ccc1[C@H]1CCOc2cc(S(=O)(=O)Nc3cccc(F)n3)ccc21 [Example 152, (S&R)—N-(6-fluoropyridin-2-yl)-4-(2-(4-methoxybutyl)-4-(trifluoromethyl)phenyl)chroman-7-sulfonamide]	67%	40 nM			
O=S(=O)(Nc1ncccn1)c1ccc2c(c1)OCC[C@H]2c1ccc(C(F)(F)F)cc1OC1CCOCC1 [Example-168, (R&S)—N-(pyrimidin-2-yl)-4-(2-((tetrahydro-2H-pyran-4-yl)oxy)-4-(trifluoromethyl)phenyl)chroman-7-sulfonamide]		3900 nM	> 10 µM		
O=S(=O)(Nc1ncccn1)c1ccc2c(c1)OCC[C@@H]2c1ccc(C(F)(F)F)cc1OC1CCOCC1 [Example-169, (R&S)—N-(pyrimidin-2-yl)-4-(2-((tetrahydro-2H-pyran-4-yl)oxy)-4-(trifluoromethyl)phenyl)chroman-7-sulfonamide]		43 nM			4.89 µM
O=S(=O)(Nc1ncc(F)cn1)c1ccc2c(c1)OCC[C@H]2c1ccc(C(F)(F)F)cc1OC1CCOCC1 [Example-170, (R&S)—N-(5-fluoropyrimidin-2-yl)-4-(2-((tetrahydro-2H-pyran-4-yl)oxy)-4-(trifluoromethyl)phenyl)chroman-7-sulfonamide]		1090 nM	> 10 µM		
O=S(=O)(Nc1ncc(F)cn1)c1ccc2c(c1)OCC[C@@H]2c1ccc(C(F)(F)F)cc1OC1CCOCC1 [Example-171, (R&S)—N-(5-fluoropyrimidin-2-yl)-4-(2-((tetrahydro-2H-pyran-4-yl)oxy)-4-(trifluoromethyl)phenyl)chroman-7-sulfonamide]	53%	125 nM			
O=S(=O)(Nc1ccncn1)c1ccc2c(c1)OCC[C@H]2c1ccc(C(F)(F)F)cc1OC1CCOCC1 [Example-172, (R&S)—N-(pyrimidin-4-yl)-4-(2-((tetrahydro-2H-pyran-4-yl)oxy)-4-(trifluoromethyl)phenyl)chroman-7-sulfonamide]		2740 nM	> 10 µM		
O=S(=O)(Nc1ccncn1)c1ccc2c(c1)OCC[C@@H]2c1ccc(C(F)(F)F)cc1OC1CCOCC1 [Example-173, (R&S)—N-(pyrimidin-4-yl)-4-(2-((tetrahydro-2H-pyran-4-yl)oxy)-4-(trifluoromethyl)phenyl)chroman-7-sulfonamide]	63%	12 nM			
O=S(=O)(Nc1cccnn1)c1ccc2c(c1)OCC[C@H]2c1ccc(C(F)(F)F)cc1OC1CCOCC1 [Example-174, (R&S)—N-(pyridazin-3-yl)-4-(2-((tetrahydro-2H-pyran-4-yl)oxy)-4-(trifluoromethyl)phenyl)chroman-7-sulfonamide]		2460 nM	> 10 µM		
O=S(=O)(Nc1cccnn1)c1ccc2c(c1)OCC[C@@H]2c1ccc(C(F)(F)F)cc1OC1CCOCC1 [Example-175, (R&S)—N-(pyridazin-3-yl)-4-(2-((tetrahydro-2H-pyran-4-yl)oxy)-4-(trifluoromethyl)phenyl)chroman-7-sulfonamide]		248 nM			1.69 µM
O=S(=O)(Nc1cccc(F)n1)c1ccc2c(c1)OCC[C@H]2c1ccc(C(F)(F)F)cc1OC1CCOCC1 [Example-176, (R&S)—N-(6-fluoropyridin-2-yl)-4-(2-((tetrahydro-2H-pyran-4-yl)oxy)-4-(trifluoromethyl)phenyl)chroman-7-sulfonamide]	57%	1310 nM			
O=S(=O)(Nc1cccc(F)n1)c1ccc2c(c1)OCC[C@@H]2c1ccc(C(F)(F)F)cc1OC1CCOCC1 [Example-177, (R&S)—N-(6-fluoropyridin-2-yl)-4-(2-((tetrahydro-2H-pyran-4-yl)oxy)-4-(trifluoromethyl)phenyl)chroman-7-sulfonamide]		11 nM			0.232 µM
O=S(=O)(Nc1ncccn1)c1ccc2c(c1)OCCC2c1ccc(C(F)(F)F)cc1O[C@H]1CCOC1 (stereo partly drawn) [Example-178, (R&S)—N-(pyrimidin-2-yl)-4-(2-(((S)-tetrahydrofuran-3-yl)oxy)-4-(trifluoromethyl)phenyl)chroman-7-sulfonamide]		149 nM	> 10 µM		
O=S(=O)(Nc1ncccn1)c1ccc2c(c1)OCCC2c1ccc(C(F)(F)F)cc1O[C@H]1CCOC1 (stereo partly drawn) [Example-179, (R&S)—N-(pyrimidin-2-yl)-4-(2-(((S)-tetrahydrofuran-3-yl)oxy)-4-(trifluoromethyl)phenyl)chroman-7-sulfonamide]	64%	38 nM			
O=S(=O)(Nc1cccc(F)n1)c1ccc2c(c1)OCCC2c1ccc(C(F)(F)F)cc1O[C@H]1CCOC1 (stereo partly drawn) [Example-180, (R&S)—N-(6-fluoropyridin-2-yl)-4-(2-(((S)-tetrahydrofuran-3-yl)oxy)-4-(trifluoromethyl)phenyl)chroman-7-sulfonamide]		831 nM	> 10 µM		
O=S(=O)(Nc1cccc(F)n1)c1ccc2c(c1)OCCC2c1ccc(C(F)(F)F)cc1O[C@H]1CCOC1 (stereo partly drawn) [Example-181, (R&S)—N-(6-fluoropyridin-2-yl)-4-(2-(((S)-tetrahydrofuran-3-yl)oxy)-4-(trifluoromethyl)phenyl)chroman-7-sulfonamide]	43%	0.9 nM			
O=S(=O)(Nc1ncccn1)c1ccc2c(c1)OCCC2c1ccc(C(F)(F)F)cc1O[C@@H]1CCOC1 (stereo partly drawn) [Example-185, (S&R)—N-(pyrimidin-2-yl)-4-(2-(((R)-tetrahydrofuran-3-yl)oxy)-4-(trifluoromethyl)phenyl)chroman-7-sulfonamide]		1020 nM	> 10 µM		
